Laboratory results taken from US12110287B2, “Heterocyclic derivatives as Nav1.7 and Nav1.8 blockers” (RaQualia Pharma Inc., priority 2018, dated 2024).

Tests used:
Nav1.7 [1] = biological target: T1, Nav1.7 (Homo sapiens, UniProt Q15858); assay: EFS-FRET assay; type: cell-based; design: expressed in transfected cells; host or cells: CHO (Chinese hamster ovary) cells; settings: CHO cells expressing human Nav1.7 channels, read-out: IC50 against Nav1.7
Description: This screen is used to determine the effects of compounds on human Nav1.7 channels, utilizing electrical field stimulation (EFS) system in 96-well plate format on FDSS (Hamamatsu Photonics) platform. The changes of membrane potential are monitored with FRET dye pair, DiSBAC2(3) and PTS18.
CHO (Chinese hamster ovary) cells expressing human Nav1.7 channels are grown in T225 flasks, in a 5% CO2 humidified incubator to about 80% confluence. Media composition consists of HAM/F12 with Glutamax I, 10% FCS, 100 units/mF penicillin and 100 microgram/mF hygromycin.
• Seed each cell lines (1×10^5 cells/well) into 96-well plates prior to experimentation. • Incubate at 37° C. in 5% CO2 for 24 hours. • Wash each well with assay buffer (140 mM NaCl, 4.5 mM KCl, 10 mM D-Glucose, 2 mM CaCl2, 1 mM MgCl2, 10 mM HEPES, pH 7.4 adjusted with NaOH) twice. • Add 1st loading solution containing 10 microM PTS18 and 0.06% Pluronic F-127 in assay buffer. • Incubate the plate at rt in dark for 1 hour. • Remove 1st loading solution and add 2nd loading solution containing 12.5 microM DiSBAC2(3), 1.25 mM Xylene Fast Yellow and 0.0075% Pluronic F-127 in assay buffer. • Place the plate under the dark at rt for 25 minutes. • Add compound solutions into the assay plate. • Set the assay plate in FDSS and place an EFS device on the plate. • Measure EFS-induced fluorescent response by FDSS.
The data are analyzed and reported as normalized ratios of intensities measured at […]. The process of calculating these ratios is performed as follows:
This analysis is performed using a computerized specific program designed for FDSS generated data. Fluorescence ratio values are plotted using XLfit to determine an IC50 value for each compound.

Nav1.7 [2] = biological target: T1, Nav1.7; assay: Electrophysiology assay (whole cell patch clamp), affinity to inactivated state; type: cell-based; design: expressed in transfected cells; settings: affinity to inactivated state (Kinact), read-out: activity (Ki) against Nav1.7
Description: Whole cell patch clamp recording is used to assess the efficacy or selectivity of Na (Sodium) channel blocker on human voltage gated sodium channels. Na channel expressing cells are dissociated by 0.05% Trypsin-EDTA or Accutase, and then seeded on cover glass for 2-24 hours.
Manual patch clamp recordings are conducted at rt using the voltage-clamp amplifier (Axon Instruments or HEKA electronik). Electrodes are pulled with P-97 electrode puller (Sutter Instrument). The electrode resistances are 1-3 MOhm when intercellular solution is filled. Currents are lowpass filtered between 2-5 kHz and digitally sampled at 10 kHz. […]
After whole-cell configuration is achieved, cell is monitored at least 10 minutes to allow cell dialysis with pipette solution. […]
Peak currents evoked by Test 1 and Test 2 pulses are sampled with Clampex (Axon Instruments) or Pulse+Pulse Fit (HEKA). Averaged peak currents under vehicle or test compounds are calculated from 3 data points at end of each condition.
Inhibitory effects (% inhibition) on peak currents at Test 1 or Test 2 pulse are plotted against test concentration and IC50 values at Test 1 (Closed IC50) or Test 2 (Inactivated IC50) are calculated with Hill equation, respectively. […]
After whole-cell configuration is achieved, the cell is monitored at least 10-15 minutes to allow cell dialysis with pipette solution. […]

T1 sequence (Q15858 whole entry): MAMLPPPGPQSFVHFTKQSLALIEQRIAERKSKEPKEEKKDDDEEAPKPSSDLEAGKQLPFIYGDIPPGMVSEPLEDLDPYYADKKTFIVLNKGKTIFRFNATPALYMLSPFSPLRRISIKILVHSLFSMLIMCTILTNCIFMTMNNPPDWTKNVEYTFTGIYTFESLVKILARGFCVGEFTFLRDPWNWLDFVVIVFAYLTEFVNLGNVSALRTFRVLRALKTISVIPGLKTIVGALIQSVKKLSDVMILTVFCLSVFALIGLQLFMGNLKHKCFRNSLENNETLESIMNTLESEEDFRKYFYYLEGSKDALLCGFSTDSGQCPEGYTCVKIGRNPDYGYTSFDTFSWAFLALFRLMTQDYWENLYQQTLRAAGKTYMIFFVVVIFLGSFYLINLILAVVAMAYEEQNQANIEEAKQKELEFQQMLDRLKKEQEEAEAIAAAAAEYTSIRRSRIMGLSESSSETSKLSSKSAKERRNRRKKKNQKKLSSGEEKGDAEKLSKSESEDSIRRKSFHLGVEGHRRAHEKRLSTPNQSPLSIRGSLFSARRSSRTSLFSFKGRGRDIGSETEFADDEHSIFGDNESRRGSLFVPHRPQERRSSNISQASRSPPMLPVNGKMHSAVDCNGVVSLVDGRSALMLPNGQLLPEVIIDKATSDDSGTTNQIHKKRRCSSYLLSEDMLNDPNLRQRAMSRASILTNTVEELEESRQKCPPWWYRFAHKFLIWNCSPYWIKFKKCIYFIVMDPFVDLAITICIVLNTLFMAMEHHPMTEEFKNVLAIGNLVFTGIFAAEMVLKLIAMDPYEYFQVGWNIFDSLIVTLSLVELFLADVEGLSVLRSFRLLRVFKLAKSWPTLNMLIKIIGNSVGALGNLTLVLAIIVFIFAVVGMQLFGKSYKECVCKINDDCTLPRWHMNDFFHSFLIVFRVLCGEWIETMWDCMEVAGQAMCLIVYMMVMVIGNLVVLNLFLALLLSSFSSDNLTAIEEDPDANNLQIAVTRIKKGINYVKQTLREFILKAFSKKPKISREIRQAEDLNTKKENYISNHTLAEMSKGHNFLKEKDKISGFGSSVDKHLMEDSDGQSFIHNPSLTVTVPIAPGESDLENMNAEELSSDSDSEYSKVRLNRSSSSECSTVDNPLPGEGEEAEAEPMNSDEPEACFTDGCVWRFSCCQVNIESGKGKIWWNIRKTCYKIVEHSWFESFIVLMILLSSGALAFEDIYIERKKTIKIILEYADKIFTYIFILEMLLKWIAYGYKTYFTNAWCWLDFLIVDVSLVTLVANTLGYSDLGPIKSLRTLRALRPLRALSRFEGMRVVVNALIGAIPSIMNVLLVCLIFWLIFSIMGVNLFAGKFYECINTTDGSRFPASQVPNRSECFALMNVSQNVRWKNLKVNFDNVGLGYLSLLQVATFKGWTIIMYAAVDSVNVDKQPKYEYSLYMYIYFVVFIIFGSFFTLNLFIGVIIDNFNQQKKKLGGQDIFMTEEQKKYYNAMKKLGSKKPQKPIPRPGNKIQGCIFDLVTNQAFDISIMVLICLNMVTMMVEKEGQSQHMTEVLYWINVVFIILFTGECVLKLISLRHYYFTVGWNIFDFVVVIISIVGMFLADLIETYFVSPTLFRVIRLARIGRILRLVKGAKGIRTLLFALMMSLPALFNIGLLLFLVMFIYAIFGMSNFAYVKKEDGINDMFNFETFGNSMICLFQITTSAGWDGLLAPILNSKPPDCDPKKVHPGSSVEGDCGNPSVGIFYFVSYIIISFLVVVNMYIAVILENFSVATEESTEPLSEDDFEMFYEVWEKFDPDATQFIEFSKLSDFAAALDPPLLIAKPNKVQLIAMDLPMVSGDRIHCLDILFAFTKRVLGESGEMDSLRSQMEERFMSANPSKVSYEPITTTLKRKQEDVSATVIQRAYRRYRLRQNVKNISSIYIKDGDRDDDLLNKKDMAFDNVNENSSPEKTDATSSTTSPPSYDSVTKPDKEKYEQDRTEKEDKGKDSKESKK

## O=C(N[C@@H]1CCCN(c2ncc(C(F)(F)F)cc2Cl)C1)c1ccnc(NC(=O)C2CC2)c1 [Example 7]
Nav1.7 [1]
  IC50: < 500 nM
Nav1.7 [2]
  Ki: < 200 nM
